According to PubChem BioAssay AID256 (DTP/NCI, 2004):
Where “and” joins values, the source holds several entries; their conditions need not be identical. Identical values can stand only once. Toxic doses and inconclusive results are not listed. Rule for the calls: active = survival T/C of 150% or more; inactive = T/C below 125% in these data.

Tested on: CD2F1 mice, L1210 leukemia ip, survival T/C
Assay: NCI In Vivo Anticancer Drug Screen. Data for tumor model L1210 Leukemia (intraperitoneal) in CD2F1 (CDF1) mice
Settings: higher = longer survival
How it was run: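 Ratio T/C, where T is the treated-group value and C the vehicle-dosed control value, from mice implanted with a transplantable tumor.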

[1] = endpoint: mean survival time, dose: 100.0 mg/kg/injection, schedule: Q01DX001 (ip), vehicle: saline
[2] = endpoint: mean survival time, dose: 100.0 mg/kg/injection, schedule: Q01DX009 (ip), vehicle: saline
[3] = endpoint: mean survival time, dose: 200.0 mg/kg/injection, schedule: Q01DX009 (ip), vehicle: saline
[4] = endpoint: mean survival time, dose: 400.0 mg/kg/injection, schedule: Q01DX009 (ip), vehicle: saline
[5] = endpoint: mean survival time, dose: 100.0 mg/kg/injection, schedule: Q04DX002 (ip), vehicle: saline with Tween-80
[6] = endpoint: mean survival time, dose: 200.0 mg/kg/injection, schedule: Q04DX002 (ip), vehicle: saline with Tween-80
[7] = endpoint: mean survival time, dose: 25.0 mg/kg/injection, schedule: Q04DX003 (ip), vehicle: saline with Tween-80
[8] = endpoint: mean survival time, dose: 100.0 mg/kg/injection, schedule: Q04DX003 (ip), vehicle: saline with Tween-80
[9] = endpoint: mean survival time, dose: 200.0 mg/kg/injection, schedule: Q04DX003 (ip), vehicle: saline with Tween-80
[10] = endpoint: mean survival time, dose: 400.0 mg/kg/injection, schedule: Q04DX003 (ip), vehicle: saline with Tween-80
[11] = endpoint: mean survival time, dose: 100.0 mg/kg/injection, schedule: Q01DX009 (ip), vehicle: saline with Tween-80
[12] = endpoint: mean survival time, dose: 200.0 mg/kg/injection, schedule: Q01DX009 (ip), vehicle: saline with Tween-80
[13] = endpoint: mean survival time, dose: 400.0 mg/kg/injection, schedule: Q01DX009 (ip), vehicle: saline with Tween-80
[14] = endpoint: mean survival time, dose: 100.0 mg/kg/injection, schedule: Q04DX003 (ip), vehicle: saline
[15] = endpoint: mean survival time, dose: 200.0 mg/kg/injection, schedule: Q04DX003 (ip), vehicle: saline
[16] = endpoint: mean survival time, dose: 400.0 mg/kg/injection, schedule: Q04DX003 (ip), vehicle: saline

Measured: T/C

CCCN(CCC)S(=O)(=O)c1ccc(NC(=O)OCc2ccccc2)cc1
inactive: [1] 103 % of control | endpoint: mean survival time, dose: 200.0 mg/kg/injection, schedule: Q01DX001 (ip), vehicle: saline 103 % of control | endpoint: mean survival time, dose: 400.0 mg/kg/injection, schedule: Q01DX001 (ip), vehicle: saline 93 % of control

CCOC(=O)CCC(NC(=O)C(CSC(c1ccccc1)(c1ccccc1)c1ccccc1)NC(c1ccccc1)(c1ccccc1)c1ccccc1)C(=O)OCC (stereo not given)
inactive: endpoint: mean survival time, dose: 25.0 mg/kg/injection, schedule: Q01DX009 (ip), vehicle: saline 93 % of control | endpoint: mean survival time, dose: 50.0 mg/kg/injection, schedule: Q01DX009 (ip), vehicle: saline 100 % of control | [2] 96 % of control | [3] 96 % of control | [4] 96 % of control

O=c1[nH]cc(N=Cc2ccccc2O)c(=O)[nH]1.[Cl][Pt]
inactive: endpoint: mean survival time, dose: 3.13 mg/kg/injection, schedule: Q04DX003 (ip), vehicle: water 96 % of control | endpoint: mean survival time, dose: 6.25 mg/kg/injection, schedule: Q04DX003 (ip), vehicle: water 96 % of control | endpoint: mean survival time, dose: 12.5 mg/kg/injection, schedule: Q04DX003 (ip), vehicle: water 97 % of control | endpoint: mean survival time, dose: 25.0 mg/kg/injection, schedule: Q04DX003 (ip), vehicle: water 108 % of control | endpoint: mean survival time, dose: 50.0 mg/kg/injection, schedule: Q04DX003 (ip), vehicle: water 102 % of control | endpoint: mean survival time, dose: 100.0 mg/kg/injection, schedule: Q04DX003 (ip), vehicle: water 100 % of control | endpoint: mean survival time, dose: 200.0 mg/kg/injection, schedule: Q04DX003 (ip), vehicle: water 108 % of control

CC([O-])C(=O)[O-].NCC1CCC1CN.[Pt+4] (stereo not given)
active: endpoint: median survival time, dose: 3.12 mg/kg/injection, schedule: Q04DX003 (ip), vehicle: saline 156 % of control | endpoint: median survival time, dose: 6.25 mg/kg/injection, schedule: Q04DX003 (ip), vehicle: saline 156 % of control | endpoint: median survival time, dose: 12.5 mg/kg/injection, schedule: Q04DX003 (ip), vehicle: saline 192 % of control and 341 % of control | endpoint: median survival time, dose: 25.0 mg/kg/injection, schedule: Q04DX003 (ip), vehicle: saline 168 % of control and 223 % of control
inactive: endpoint: median survival time, dose: 0.78 mg/kg/injection, schedule: Q04DX003 (ip), vehicle: saline 114 % of control | endpoint: median survival time, dose: 1.56 mg/kg/injection, schedule: Q04DX003 (ip), vehicle: saline 120 % of control

COc1ccc(NC(=O)Nc2cccc(Cl)c2)c(OC)c1
inactive: [5] 88 % of control | [6] 98 % of control

O=c1cc(-c2ccccc2)[nH]c2c1CCCC2
inactive: endpoint: median survival time, dose: 12.5 mg/kg/injection, schedule: Q01DX009 (ip), vehicle: saline with Tween-80 102 % of control | endpoint: median survival time, dose: 25.0 mg/kg/injection, schedule: Q01DX009 (ip), vehicle: saline with Tween-80 105 % of control | endpoint: median survival time, dose: 50.0 mg/kg/injection, schedule: Q01DX009 (ip), vehicle: saline with Tween-80 103 % of control and 108 % of control and 109 % of control | endpoint: median survival time, dose: 100.0 mg/kg/injection, schedule: Q01DX009 (ip), vehicle: saline with Tween-80 115 % of control and 116 % of control and 105 % of control | endpoint: median survival time, dose: 200.0 mg/kg/injection, schedule: Q01DX009 (ip), vehicle: saline with Tween-80 117 % of control and 120 % of control | endpoint: median survival time, dose: 400.0 mg/kg/injection, schedule: Q01DX009 (ip), vehicle: saline with Tween-80 90 % of control and 103 % of control

CCCCC(CC)CNC1=C(Cl)C(=O)c2ccccc2C1=O (stereo not given)
inactive: [7] 98 % of control | endpoint: mean survival time, dose: 50.0 mg/kg/injection, schedule: Q04DX003 (ip), vehicle: saline with Tween-80 106 % of control | [8] 95 % of control

CC(=O)OC1CC2C[CH]([Hg][Cl])C1C2 (stereo not given)
inactive: endpoint: mean survival time, dose: 6.25 mg/kg/injection, schedule: Q04DX003 (ip), vehicle: saline with Tween-80 95 % of control | endpoint: mean survival time, dose: 12.5 mg/kg/injection, schedule: Q04DX003 (ip), vehicle: saline with Tween-80 111 % of control | [7] 86 % of control

Cc1cc2nc(C(=C(c3nc4cc(C)c(C)cc4[nH]3)c3nc4cc(C)c(C)cc4[nH]3)c3nc4cc(C)c(C)cc4[nH]3)[nH]c2cc1C
inactive: [8] 97 % of control | [9] 94 % of control | [10] 89 % of control

O=C(CCBr)NCc1ccccc1
inactive: [11] 97 % of control | [8] 92 % of control | [12] 98 % of control | [9] 98 % of control | [13] 97 % of control | [10] 95 % of control

CNCCSSCCN
inactive: endpoint: mean survival time, dose: 50.0 mg/kg/injection, schedule: Q01DX009 (ip), vehicle: saline with Tween-80 95 % of control | endpoint: mean survival time, dose: 50.0 mg/kg/injection, schedule: Q04DX003 (ip), vehicle: saline 98 % of control | [11] 93 % of control | [14] 93 % of control | [15] 98 % of control | [16] 98 % of control

N=C(c1ccccc1)c1ccccc1
inactive: [11] 100 % of control | [12] 102 % of control | [13] 102 % of control

Cc1cc(=O)c2c(ccc3[nH]c(-c4ccco4)nc32)[nH]1
inactive: [5] 95 % of control | [6] 102 % of control | endpoint: mean survival time, dose: 400.0 mg/kg/injection, schedule: Q04DX002 (ip), vehicle: saline with Tween-80 91 % of control

NCCCCCC(=O)O
inactive: endpoint: mean survival time, dose: 25.0 mg/kg/injection, schedule: Q01DX001 (ip), vehicle: saline 98 % of control | endpoint: mean survival time, dose: 50.0 mg/kg/injection, schedule: Q01DX001 (ip), vehicle: saline 98 % of control | [1] 93 % of control | [2] 94 % of control | [14] 89 % of control | [3] 96 % of control | [15] 98 % of control | [4] 97 % of control | [16] 102 % of control
